The test system of one data set is rat islets. Nature of the data set: Viability of encapsulated rat islets after overnight culture. The conditions noted are these: nicotinamide 10 mM, Z-VAD.fmk 40 μM. It is filed as cell-based. The method, then: Transplantation of islets microencapsulated within a membrane-mimetic barrier. Evaluation of cell viability. Initial experiments used CHO cells as a readily available model system to assess cell viability after encapsulation. Cells were suspended into alginate solution at 6×10^6 cells/mL and then coated with a photopolymerized membrane-mimetic lipid film. Cell viability of >95% at 24 and 48 hours was confirmed using a Live/Dead cell assay (Molecular Probes, Inc.). In the next phase of this effort, we determined the viability of encapsulated rat islets (103). Rat islets were isolated from outbred male Wistar rats and suspended at a concentration of 1000 islets in 0.25 mL of 2% alginate (UP LVM, Pronova Biomedical, Norway). Alginate encapsulated islets were coated with a membrane-mimetic film and after overnight culture viability was graded with respect to the proportion of viable cells within a given islet.

The conditions of data set [1]: biotin binding sites; cited from earlier work.
In another data set the test system is Factor V. The conditions noted are these: cited from earlier work.
Data set [2] has as its system islet-induced coagulation. Particulars: ex vivo model; cited from earlier work.
For data set [3] the following is noted: systemic; cited from earlier work.
A short description of data set [4]: CD39 ATPase activity kinetics (inorganic phosphate release). It is filed as biochemical. The conditions noted are these: substrate ATP 50-1500 μM; vesicles: molar ratio CD39:POPC 1:33,613. From the text:
(§1) We have expressed and purified human CD39 from Pichia pastoris and confirmed both ecto-ATPase and ecto-ADPase activity. […] Briefly, the plasmid carrying the CD39 human coding sequence was provided by Dr. Simon C. Robson (Harvard Medical School, USA). Polymerase chain reaction (PCR) was utilized to add a Kozak sequence flanked by EcoRI to the […] of CD39 and a FLAG tag flanked by XbaI to the 3′ end of CD39. The construct was harbored in pCR 2.1-TOPO (Invitrogen, San Diego, Calif.) and multiplied in One Shot Top10 (Invitrogen). To express CD39 in yeast, the EcoRI/XbaI digestion product was cloned into pPICZ (Invitrogen) and transformed into Pichia pastoris strain SMD1168 (Invitrogen). The expression construct was confirmed through DNA sequencing analysis. P. pastoris cultures were grown at 30° C. and expression induced for 4 days with 0.5% methanol. Cells were harvested, resuspended in breaking buffer, and cell lysates centrifuged to separate membrane and soluble fractions. […] CD39 was extracted from membrane fractions using 1% Igepal CA-630 and purified on anti-FLAG M2 affinity columns (Sigma, Saint Louis, Mo.). Kinetic parameters were measured for both detergent-solubilized CD39 and for protein reconstituted in POPC lipid vesicles at varying molar ratios of CD39 to lipid (1:85,714, 1:33,613, 1:16,806). […] Inorganic phosphate was measured as described by Ames (116). […]

Data set [5] in a line: CD39 ADPase activity kinetics (inorganic phosphate release). It is filed as biochemical. The conditions noted are these: substrate ADP 50-1500 μM; vesicles: molar ratio CD39:POPC 1:33,613.
Source text: as §1

Residues, ends and D or L forms follow the SMILES beside them. *: point of attachment. Cbz = O=C(OCc1ccccc1)*; CH2F = FC*

As a reminder, the Km is the concentration of substrate that gives half-maximal velocity.

Take `COC(=O)C[C@H](NC(=O)[C@H](C)NC(=O)[C@@H](NC(=O)OCc1ccccc1)C(C)C)C(=O)CF` [Z-VAD.fmk] (Cbz-Val-Ala-Asp(OMe)-CH2F): the “effect of anti-apoptotic agent on islet viability” value in the data set with rat islets is given as “important adjuncts for maximizing islet viability”.
Take `NC(=O)c1cccnc1` [nicotinamide]: the “effect of anti-apoptotic agent on islet viability” value with rat islets was “important adjuncts for maximizing islet viability”.
In the case of “avidin: biotin binding protein with four biotin binding sites”, in data set [1], the “binding affinity (log)” value is above 15.
Consider heparin, for which the “enhancement of APC's ability to inactivate Factor V” value with Factor V is given as “four-fold”. Besides, the “concentration that prevented islet-induced coagulation” value in data set [2] is 4 U/mL blood. Also, in data set [3], the half-life result is “one hour”.

B1: Free CD39: detergent-solubilized human CD39 expressed in Pichia pastoris, FLAG tagged (protein, UniProt P49961 1-510, looked up)
Ectonucleoside triphosphate …: MEDTKESNVKTFCSKNILAILGFSSIIAVIALLAVGLTQNKALPENVKYGIVLDAGSSHTSLYIYKWPAEKENDTGVVHQVEECRVKGPGISKFVQKVNEIGIYLTDCMERAREVIPRSQHQETPVYLGATAGMRLLRMESEELADRVLDVVERSLSNYPFDFQGARIITGQEEGAYGWITINYLLGKFSQKTRWFSIVPYETNNQETFGALDLGGASTQVTFVPQNQTIESPDNALQFRLYGKDYNVYTHSFLCYGKDQALWQKLAKDIQVASNEILRDPCFHPGYKKVVNVSDLYKTPCTKRFEMTLPFQQFEIQGIGNYQQCHQSILELFNTSYCPYSQCAFNGIFLPPLQGDFGAFSAFYFVMKFLNLTSEKVSQEKVTEMMKKFCAQPWEEIKTSYAGVKEKYLSEYCFSGTYILSLLLQGYHFTADSWEHIHFIGKIQGSDAGWTLGYMLNLTNMIPAEQPLSTPLSHSTYVFLMVLFSLVLFTVAIIGLLIFHKPSYFWKDMV
modifications: FLAG tag
notes: detergent-solubilized human CD39 expressed in Pichia pastoris, FLAG tagged
Consider B1, for which the Km in data set [4] came to 58.5 µM; in data set [5], 45.8 µM.
